Consider 4 compounds from patent US10301596B2, “Method of repairing damaged chondrocytes via low-dose irradiation” (KOREA INSTITUTE OF RADIOLOGICAL & MEDICAL SCIENCES, priority 2013, dated 2019).

What all share (type): cell-based
One experiment relates to chondrocytes. The experiment is described as follows: Levels of differentiation- and inflammation-related proteins (type II collagen, Sox-9, I-κB, COX-2), Western blot in chondrocytes. The protocol:
First, the chondrocytes derived from joints were cultured in a DMEM medium according to a known method (E. H. Hong, et al., J. Biol. Chem. 285:1283-1295, 2010). Then, the cultured chondrocytes were inoculated into culture dishes at a density of 5×10^4 cells/cm^2, which were irradiated with 0 cGy, 0.5 cGy, 1.0 cGy, 1.5 cGy, and 2.0 cGy LDR using a ^137Cs-ray source (KIRMS, Korea), and the levels of type II collagen or Sox-9 protein, which are cartilage-specific differentiation marker proteins, and I-κB or COX-2 protein, which are inflammation-related proteins, were determined via Western blot analysis, and the transcriptional activity of Sox-9 protein and NF-κB, which is affected by I-κB, were determined by reporter gene assay (FIGS. 1a and b). […]
Finally, chondrocytes were transfected with 3 μg of GFP-labeled S83A α-catenin, FLAG-labeled S33A β-catenin, or wild type γ-catenin, reacted with or without treatment with 5 μM or 10 μM BAY 11-7082 for 24 hours, and the levels of I-κB and COX-2 proteins were determined via Western blot analysis (FIG. 5g). […]
On the technique in general: Immunoblotting shows a protein as a band on a membrane.

The next experiment concerns Sox-9. The experiment is described as follows: Sox-9 transcriptional activity, reporter gene assay in chondrocytes. The settings on record: 10 ng/mL IL-1β alone. The protocol:
(§1) First, the chondrocytes derived from joints were cultured in a DMEM medium according to a known method (E. H. Hong, et al., J. Biol. Chem. 285:1283-1295, 2010). Then, the cultured chondrocytes were inoculated into culture dishes at a density of 5×10^4 cells/cm^2, which were irradiated with 0 cGy, 0.5 cGy, 1.0 cGy, 1.5 cGy, and 2.0 cGy LDR using a ^137Cs-ray source (KIRMS, Korea), and the levels of type II collagen or Sox-9 protein, which are cartilage-specific differentiation marker proteins, and I-κB or COX-2 protein, which are inflammation-related proteins, were determined via Western blot analysis, and the transcriptional activity of Sox-9 protein and NF-κB, which is affected by I-κB, were determined by reporter gene assay (FIGS. 1a and b).
(§2) Chondrocytes were treated with either 10 ng/mL IL-1β alone, or in a combination of IL-1β treatment and 0.5 cGy or 1 cGy LDR, and the transcript levels of type I collagen, type II collagen, Sox-9, COX-2, and I-κB were measured via PCR using GAPDH as a control and a quantitative real-time PCR analysis, and the transcriptional activity of NF-κB was measured by reporter gene assay (FIGS. 2a, 2b, 2c, and 2d).
Additionally, the transcriptional activity of Sox-9 or NF-κB was determined by reporter gene assay, and the experimental results were indicated in terms of mean standard deviation (FIG. 5e). […]

Another experiment deals with NF-κB. The experiment is described as follows: NF-κB transcriptional activity, reporter gene assay in chondrocytes. The following applies: for transcriptional activity of NF-κB increased: 10 ng/mL IL-1β; for NF-κB activity reduced compared to IL-1β-treated chondrocytes: 1 hour before 10 ng/mL IL-1β. The procedure:
as §1, §2
Meanwhile, chondrocytes were treated with LY294002, which is another chemical inhibitor of PI3K/Akt signaling, at a concentration of 10 μM or 20 μM, reacted for 1 hour, treated with […] reacted for 48 hours. Upon reaction, the levels of type II collagen, Sox-9, I-κB, and COX-2 proteins were determined via Western blot analysis, and the transcriptional activity of NF-κB was determined by reporter gene assay (FIG. 3c).
Finally, chondrocytes were transfected with 3 μg of the respective catenin plasmid for 24 hours, and untreated (−) or treated with 10 ng/mL, IL-1β (+) for 48 hours. Then, the levels of differentiation- and inflammation-related proteins were determined via Western blot analysis, and the transcriptional activity of NF-κB at 24 hours after IL-1β treatment was determined by reporter gene assay (FIG. 4d).
Additionally, the transcriptional activity of Sox-9 or NF-κB was determined by reporter gene assay, and the experimental results were indicated in terms of mean standard deviation (FIG. 5e). As a result, it was confirmed that LDR can increase the activity of Sox-9 in catenin-overexpressing chondrocytes while reducing the transcriptional activity of NF-κB. Specifically, as shown in FIG. 5e (left), 1 cGy LDR irradiation increased Sox-9 activity by about a 2.2-, 2.7-, and 2.4-fold compared to that in cells transfected with […], and, as shown in FIG. 5e (right), reduced NF-κB activity by about 74%, 78%, and 75%, respectively, thus confirming that LDR has the effect of inhibiting the induction of potential inflammation.

For the next experiment, the system named is COX-2. As to the kind of experiment: COX-2 transcript level by PCR and quantitative real-time PCR in chondrocytes. The following applies: 10 ng/mL IL-1β. The procedure:
as §2
(In general: Quantitative PCR measures a nucleic acid by following its amplification.)

A further experiment relates to Akt. As to the kind of experiment: Expression and phosphorylation of Akt and GSK3α/β, Western blot in chondrocytes. The settings on record: 10 ng/mL IL-1β.
The subject of experiment [1] is α-, β-, and γ-catenin proteins. The experiment is described as follows: Levels of catenin proteins, Western blot in chondrocytes. The settings on record: 10 ng/mL IL-1β for a predetermined period of time. The procedure: First, chondrocytes were treated with 10 ng/mL IL-1β for a predetermined period of time, and the levels of the catenin proteins were determined via Western blot analysis (FIG. 4a).
First, it was examined whether LDR can directly regulate the expression of catenin proteins in chondrocytes. In this regard, chondrocytes, which were in a state untreated or treated with 10 ng/mL IL-1β, were irradiated at varied doses of LDR for 48 hours, and the levels of catenin proteins were determined via Western blot analysis (FIGS. 5a and 5h).
In order to examine whether the inhibitory effect of LDR on chondrocyte disorders is exclusively related to the responses to IL-1β, cells were treated with EGF, PMA, and RA, which are agents known to induce dedifferentiation of chondrocytes. Specifically, chondrocytes were treated or untreated with 10 ng/mL EGF(a), 10 nM PMA(b), and 1 μM RA(c) for 2 hours, treated or untreated with 0.5 cGy or 1 cGy LDR for 36 hours, and the levels of catenin proteins and differentiation/inflammation-related proteins were determined via Western blot analysis (FIGS. 6a, 6b, and 6c).

Setting [2] is: 5 μM or 10 μM, 1 hour before 10 ng/mL IL-1β, 48 hours.

As for `CCCCCCCCCCCCCC(=O)O[C@@H]1[C@@H](C)[C@@]2(O)[C@@H](C=C(CO)C[C@]3(O)C(=O)C(C)=C[C@@H]23)[C@@H]2C(C)(C)[C@]12OC(C)=O` [PMA, phorbol 12-myristate 13-acetate], the “pathological changes induced by soluble factor (type II collagen, Sox-9, COX-2 proteins)” value in the experiment on chondrocytes (10 ng/mL EGF, 10 nM PMA or 1 μM RA) was “inhibition of expression of type II collagen and Sox-9 proteins and induction of COX-2 protein expression”.
Turning to “IL-1β: cytokine used at 10 ng/mL to induce dedifferentiation, inflammation and destruction of chondrocytes”, the “transcriptional activity of Sox-9 reduced compared to control cells” value in the experiment with Sox-9 (24 hours after treatment) is recorded as “about 32%”; in the experiment with Sox-9 (48 hours after treatment), around 60%. Further, the “NF-κB activity increase, IL-1β treatment alone” value in the experiment on NF-κB (10 ng/mL IL-1β alone, 24 hours after treatment, catenin experiment (FIG. 4d)) is on record as “about 8.5 fold”. Also, the “transcriptional activity of NF-κB increased” value is “about 8.6 fold” in the experiment on NF-κB (24 hours after treatment (FIG. 2c)) and around 6.7 fold in the experiment on NF-κB (48 hours after treatment (FIG. 2c)). Also, the “level of COX-2 expression increased compared to control group” value in the experiment on COX-2 (24 hours after treatment) is on record as “about 9.8 fold”; in the experiment on COX-2 (48 hours after treatment) it was around 7.7 fold. In addition, in the experiment with Akt, the “phosphorylation of Akt induced by treatment” value is on record as “induced the phosphorylation of Akt”. Moreover, the “level of type II collagen and Sox-9 proteins” value with chondrocytes (10 ng/mL IL-1β alone) was “reduced the level of type II collagen and Sox-9 proteins”. The “expression of α-, β-, and γ-catenin proteins” value in experiment [1] was “expressed in a time-dependent manner”.
`O=c1cc(N2CCOCC2)oc2c(-c3ccccc3)cccc12` [LY294002]: the “NF-κB activity reduced compared to IL-1β-treated chondrocytes” value is “about 48%” in the experiment with NF-κB (10 μM) and around 68% in the experiment on NF-κB (20 μM).
Turning to `Cc1ccc(S(=O)(=O)/C=C/C#N)cc1` [BAY 11-7082], the “degradation of I-κB and induction of COX-2 in cells transfected with α-, β- or γ-catenin” value with chondrocytes (5 μM or 10 μM for 24 hours, catenin-transfected chondrocytes) is “reversed”. In addition, in the experiment on chondrocytes (setting [2]), the “COX-2 protein expression compared to IL-1β-treated chondrocytes” value is listed as “reduced COX-2 expression” and the I-κB degradation result is recorded as “inhibited I-κB degradation in a dose-dependent manner”.
